Measurements reported in ChEMBL document CHEMBL4024781, “Comprehensive Synthesis of Amino Acid-Derived Thiazole Peptidomimetic Analogues to Understand the Enigmatic Drug/Substrate-Binding Site of P-Glycoprotein” (J Med Chem, 2018).

What was measured:
Conditions in all cases: read-out: Activity
[1] = molecular target: T1, P-gp (ABCB1) (Homo sapiens, UniProt P08183); test: Activation of human P-gp expressed in high five insect cell membrane vesicles by measuring the vanadate-sensitive ATPase activity of P-gp at 2.5 uM preincubated for 5 mins in the presence of sodium orthovanadate measured after 20 mins by colorimetric method
[2] = molecular target: T1, P-gp (ABCB1); test: Activation of human P-gp expressed in high five insect cell membrane vesicles by measuring the vanadate-sensitive ATPase activity of P-gp at 0.5 uM preincubated for 5 mins in the presence of sodium orthovanadate measured after 20 mins by colorimetric method
[3] = molecular target: T1, P-gp (ABCB1); test: Activation of human P-gp expressed in high five insect cell membrane vesicles by measuring the vanadate-sensitive ATPase activity of P-gp at 0.05 uM preincubated for 5 mins in the presence of sodium orthovanadate measured after 20 mins by colorimetric method

T1 sequence (P08183 whole entry): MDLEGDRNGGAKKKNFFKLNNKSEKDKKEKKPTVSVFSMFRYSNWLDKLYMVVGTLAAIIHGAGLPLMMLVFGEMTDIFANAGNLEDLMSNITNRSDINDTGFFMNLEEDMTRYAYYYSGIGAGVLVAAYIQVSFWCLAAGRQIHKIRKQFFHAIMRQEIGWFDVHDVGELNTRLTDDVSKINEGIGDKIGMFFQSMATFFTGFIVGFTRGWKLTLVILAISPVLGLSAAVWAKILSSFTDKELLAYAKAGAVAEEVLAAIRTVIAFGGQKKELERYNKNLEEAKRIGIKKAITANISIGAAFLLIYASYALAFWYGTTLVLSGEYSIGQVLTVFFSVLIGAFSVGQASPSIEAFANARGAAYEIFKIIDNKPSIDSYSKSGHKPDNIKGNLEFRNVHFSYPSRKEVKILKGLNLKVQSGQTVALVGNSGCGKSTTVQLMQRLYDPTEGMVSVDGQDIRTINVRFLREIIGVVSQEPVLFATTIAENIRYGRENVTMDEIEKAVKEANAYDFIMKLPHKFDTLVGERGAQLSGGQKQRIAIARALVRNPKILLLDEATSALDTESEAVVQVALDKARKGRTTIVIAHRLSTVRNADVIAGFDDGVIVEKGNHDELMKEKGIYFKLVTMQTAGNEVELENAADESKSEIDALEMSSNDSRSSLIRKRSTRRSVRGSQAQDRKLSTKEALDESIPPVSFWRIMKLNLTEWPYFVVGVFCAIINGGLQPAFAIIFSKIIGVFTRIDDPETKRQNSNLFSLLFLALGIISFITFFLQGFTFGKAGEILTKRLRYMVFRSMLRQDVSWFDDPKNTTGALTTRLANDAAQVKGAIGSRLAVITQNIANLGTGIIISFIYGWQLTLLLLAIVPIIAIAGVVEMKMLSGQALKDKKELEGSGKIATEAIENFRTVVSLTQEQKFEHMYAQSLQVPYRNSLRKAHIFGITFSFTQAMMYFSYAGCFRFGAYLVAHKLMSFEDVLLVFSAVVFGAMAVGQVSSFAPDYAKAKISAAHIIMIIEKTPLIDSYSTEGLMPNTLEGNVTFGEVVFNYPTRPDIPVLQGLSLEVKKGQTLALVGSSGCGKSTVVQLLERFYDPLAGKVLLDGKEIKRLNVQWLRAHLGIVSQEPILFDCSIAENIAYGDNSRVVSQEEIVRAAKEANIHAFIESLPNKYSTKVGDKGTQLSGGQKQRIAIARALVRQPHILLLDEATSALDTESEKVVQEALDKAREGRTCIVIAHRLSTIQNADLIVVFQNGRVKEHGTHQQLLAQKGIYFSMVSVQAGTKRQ

SMILES | activity at 20 min, 2.5 µM [1] [%] | activity at 20 min, 0.5 µM [2] [%] | activity at 20 min, 0.05 µM [3] [%]
COc1cc(C(=O)N[C@H](c2nc(C(=O)Nc3ccc(F)cc3)cs2)C(C)C)cc(OC)c1OC | 244 | 59.5 | 
COc1cc(C(=S)N[C@H](c2nc(C(=S)NC3CCC(F)(F)CC3)cs2)C(C)C)cc(OC)c1OC | 64 | 25 | 
COc1cc(C(=O)N[C@H](c2nc(C(=S)NC3CCCCC3)cs2)C(C)C)cc(OC)c1OC | 27 | ≤ 10 | 
COc1cc(C(=O)N[C@H](c2nc(C(=O)Nc3cc(F)c(F)c(F)c3)cs2)C(C)C)cc(OC)c1OC | 176 | 57 | 
COc1cc(C(=O)N2CCCC2c2nc(C(=O)NC3CCC(F)(F)CC3)cs2)cc(OC)c1OC (configuration not stated) | 21 | ≤ 10 | 
COc1cc(C(=O)N[C@H](c2nc(C(=O)NC3CC3)cs2)C(C)C)cc(OC)c1OC |  | ≤ 10 | ≤ 10
COc1cc(C(=O)C(=O)N[C@H](c2nc(C(=O)NC3CCC(F)(F)CC3)cs2)C(C)C)cc(OC)c1OC | 178 |  | 
COc1cc(C(=O)N[C@H](c2nc(C(=O)Nc3ccccc3C(=O)c3ccc(Br)cc3)cs2)C(C)C)cc(OC)c1OC |  | 149 | 309
CC(C)[C@H](NC(=O)c1cnc2ccccc2c1)c1nc(C(=O)NC2CCC(F)(F)CC2)cs1 | 83.9 |  | 
CC(C)[C@H](NC(=O)c1cncnc1)c1nc(C(=O)NC2CCC(F)(F)CC2)cs1 | ≤ 10 |  | 
COc1cc(C(=O)N[C@H](c2nc(C(=O)NC34CC5CC(CC(C5)C3)C4)cs2)C(C)C)cc(OC)c1OC |  | ≤ 10 | ≤ 10
COc1cc(C(=O)N[C@H](c2nc(C(=O)NCC3CCNCC3)cs2)C(C)C)cc(OC)c1OC | ≤ 10 | 23 | 
COc1cc(C(=O)N[C@H](c2nc(C(=O)Nc3cccc(C(=O)c4ccccc4)c3)cs2)C(C)C)cc(OC)c1OC |  | 143 | 13
COc1cc(C(=O)N[C@H](c2nc(C(=O)N3CCC(=O)CC3)cs2)C(C)C)cc(OC)c1OC | ≤ 10 | ≤ 10 | 
COc1cc(C(=O)N[C@H](c2nc(C(=O)NC3CCN(Cc4ccccc4)CC3)cs2)C(C)C)cc(OC)c1OC | 154 | 169 | 
COc1cc(C(=O)N[C@H](c2nc(C(=O)N3CCC(N4CCCCC4)CC3)cs2)C(C)C)cc(OC)c1OC | 47.2 | 37.2 | 
COc1cc(C(=O)N[C@H](c2nc(C(=O)NC3CCCC3)cs2)C(C)C)cc(OC)c1OC | ≤ 10 | ≤ 10 | 
COc1cc(C(=O)N[C@H](c2nc(C(=O)NCCCC(F)(F)F)cs2)C(C)C)cc(OC)c1OC | 77.3 | 17.1 | 
CC(C)[C@H](NC(=O)c1ccccc1)c1nc(C(=O)NC2CCC(F)(F)CC2)cs1 | 10.5 |  | 
COc1cc(C(=O)N[C@H](c2nc(C(=O)NC3CCN(C(=O)OC(C)(C)C)CC3)cs2)C(C)C)cc(OC)c1OC | 48 | 52.7 | 
COc1cc(C(=O)N[C@H](c2nc(C(=O)NC3CCN(c4ncccn4)CC3)cs2)C(C)C)cc(OC)c1OC | 83 | 17.1 | 
COc1cc(CC(=O)N[C@H](c2nc(C(=O)NC3CCC(F)(F)CC3)cs2)C(C)C)cc(OC)c1OC | 70.2 |  | 
COc1cc(C(=O)N[C@H](c2nc(C(=O)NC3CCS(=O)(=O)CC3)cs2)C(C)C)cc(OC)c1OC | ≤ 10 | ≤ 10 | 
COc1cc(C(=O)Nc2nc(C(=O)NC3CCC(F)(F)CC3)cs2)cc(OC)c1OC | 60.2 | 53.9 | 
CC(C)[C@H](NC(=O)C1CCOCC1)c1nc(C(=O)NC2CCC(F)(F)CC2)cs1 | ≤ 10 |  | 
CC(C)[C@H](NC(=O)c1cscn1)c1nc(C(=O)NC2CCC(F)(F)CC2)cs1 | 49.7 |  | 
COc1cc(C(=S)N[C@H](c2nc(C(=S)NC3CCCCC3)cs2)C(C)C)cc(OC)c1OC | 92 | 65 | 

SMILES | activity at 20 min, 2.5 µM [1] [%] | activity at 20 min, 0.5 µM [2] [%] | activity at 20 min, 0.05 µM [3] [%]
COc1cc(C(=O)NC(CC(C)C)c2nc(C(=O)NC3CCC(F)(F)CC3)cs2)cc(OC)c1OC (configuration not stated) | 68 | 16 | 
COc1cc(C(=O)N[C@H](c2nc(C(=O)Nc3ccccc3C(=O)Nc3ccccc3)cs2)C(C)C)cc(OC)c1OC |  | 142 | 21
COc1ccc(C(=O)N[C@H](c2nc(C(=O)NC3CCC(F)(F)CC3)cs2)C(C)C)cc1 | 35.8 |  | 
COc1cc(C(=O)N[C@H](c2nc(C(=O)Nc3ccccc3Oc3ccccc3)cs2)C(C)C)cc(OC)c1OC |  | 88 | ≤ 10
COc1cc(C(=O)N[C@H](c2nc(C(=O)NC3CCC(=O)CC3)cs2)C(C)C)cc(OC)c1OC | ≤ 10 | 13.1 | 
COc1cc(C(=O)N[C@H](c2nc(C(=O)N[C@H]3CCCc4ccccc43)cs2)C(C)C)cc(OC)c1OC | 123 | 108 | 
CC(C)[C@H](N)c1nc(C(=O)NC2CCC(F)(F)CC2)cs1 | ≤ 10 | ≤ 10 | 
COc1ccc(C(=O)N[C@H](c2nc(C(=O)NC3CCC(F)(F)CC3)cs2)C(C)C)cc1OC | 11.9 |  | 
COc1cc(C(=O)N[C@H](c2nc(C(=O)Nc3ccccc3Cc3ccccc3)cs2)C(C)C)cc(OC)c1OC |  | 112 | 15
COc1cc(NC(=O)c2csc([C@@H](NC(=O)c3ccccc3C(=O)c3ccccc3)C(C)C)n2)cc(OC)c1OC |  | 46 | ≤ 10
COc1cc(C(=O)N[C@H](c2nc(C(=O)Nc3ccccc3NC(=O)c3ccccc3)cs2)C(C)C)cc(OC)c1OC |  | 52 | ≤ 10
COc1cc(C(=O)N[C@H](c2nc(C(=O)N3CCC(N)CC3)cs2)C(C)C)cc(OC)c1OC | ≤ 10 | 45.4 | 
COc1cc(C(=O)N[C@H](c2nc(C(=O)NC3CCNCC3)cs2)C(C)C)cc(OC)c1OC | 14.5 | 46.3 | 
COc1cc(C(=O)N[C@H](c2nc(C(=O)NC3CCOCC3)cs2)C(C)C)cc(OC)c1OC | ≤ 10 | 26.9 | 
CC(C)[C@H](NC(=O)c1ccc(N=[N+]=[N-])cc1)c1nc(C(=O)Nc2ccccc2C(=O)c2ccccc2)cs1 | 164 | 135 | 
CC(C)[C@H](NC(=O)c1ccc(N=[N+]=[N-])cc1)c1nc(C(=O)Nc2ccccc2C(=O)c2ccc(Br)cc2)cs1 | 84.7 | 99.4 | 
CC(C)[C@H](NC(=O)c1cccc(N=[N+]=[N-])c1)c1nc(C(=O)Nc2ccccc2C(=O)c2ccccc2)cs1 | 194 | 122 | 
COc1cc(C(=O)N[C@H](c2nc(C(=O)NC3CCC(C)(C)CC3)cs2)C(C)C)cc(OC)c1OC | 34.3 | ≤ 10 | 
CC(C)[C@H](NC(=O)c1ccccc1N=[N+]=[N-])c1nc(C(=O)Nc2ccccc2C(=O)c2ccccc2)cs1 | 182 | 142 | 
COc1cc(C(=O)NCc2nc(C(=O)NC3CCC(F)(F)CC3)cs2)cc(OC)c1OC | 13 | ≤ 10 | 
COc1cc(C(=O)N[C@H](c2nc(C(=O)NC3CCC3)cs2)C(C)C)cc(OC)c1OC | ≤ 10 | 25.3 | 
COc1cc(C(=O)N[C@H](c2nc(C(=O)N3CCC(C(F)(F)F)CC3)cs2)C(C)C)cc(OC)c1OC | 75.6 | 13.3 | 
COc1cc(C(=O)NC(c2nc(C(=O)NCC3CCC(N)CC3)cs2)C(C)C)cc(OC)c1OC (configuration not stated) | ≤ 10 | ≤ 10 | 
COc1cc(C(=O)N[C@H](c2nc(C(=O)N3CCC(F)(F)CC3)cs2)C(C)C)cc(OC)c1OC | 55.9 | 40.9 | 
COc1cc(C(=O)N[C@H](c2nc(C(=O)Nc3ccccc3C(=O)c3ccc(N=[N+]=[N-])cc3)cs2)C(C)C)cc(OC)c1OC | 169 | 148 | 
COc1cc(C(=O)N[C@H](c2nc(C(=O)N(C3CCCCC3)C3CCCCC3)cs2)C(C)C)cc(OC)c1OC | 134 | 109 | 
